Experimental data: doi:10.1101/2024.08.13.607785v1 (biorxiv, 2024)

Legend:
Set-up in all cases: species or system mixed lysate of K562, MV4-11, THP-1, NCI-H1155
[1] = target: Activated CDC42 kinase 1 ; TNK2 ; Q07912 (Homo sapiens, UniProt Q07912); settings: DIA-MS residual binding; binder
[2] = target: T1, Discoidin domain-containing receptor 2 ; DDR2 ; Q16832 (Homo sapiens, UniProt Q16832); settings: binder
T1 sequence (Q16832 1-855): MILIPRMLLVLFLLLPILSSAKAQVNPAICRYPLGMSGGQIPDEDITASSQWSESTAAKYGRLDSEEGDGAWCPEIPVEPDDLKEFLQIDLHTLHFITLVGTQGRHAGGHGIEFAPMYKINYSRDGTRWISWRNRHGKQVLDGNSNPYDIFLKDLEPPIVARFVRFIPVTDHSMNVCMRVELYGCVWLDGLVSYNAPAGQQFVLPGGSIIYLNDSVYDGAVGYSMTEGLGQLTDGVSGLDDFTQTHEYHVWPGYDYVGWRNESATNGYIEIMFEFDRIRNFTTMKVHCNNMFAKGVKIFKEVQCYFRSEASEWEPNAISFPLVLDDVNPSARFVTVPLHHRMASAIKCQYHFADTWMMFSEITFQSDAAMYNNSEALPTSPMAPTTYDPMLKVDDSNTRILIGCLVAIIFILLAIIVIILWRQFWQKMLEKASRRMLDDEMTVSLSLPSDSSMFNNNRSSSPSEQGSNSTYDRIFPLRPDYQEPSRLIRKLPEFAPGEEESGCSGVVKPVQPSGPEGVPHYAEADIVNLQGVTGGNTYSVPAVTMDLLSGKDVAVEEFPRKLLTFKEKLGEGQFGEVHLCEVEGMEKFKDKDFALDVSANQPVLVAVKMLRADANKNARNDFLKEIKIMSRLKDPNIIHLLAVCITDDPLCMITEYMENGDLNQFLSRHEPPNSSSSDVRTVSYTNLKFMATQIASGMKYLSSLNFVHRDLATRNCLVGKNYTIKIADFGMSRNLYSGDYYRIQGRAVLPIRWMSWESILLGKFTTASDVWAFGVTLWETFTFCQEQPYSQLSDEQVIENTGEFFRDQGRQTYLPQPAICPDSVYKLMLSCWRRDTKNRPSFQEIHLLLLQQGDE

[3] = target: Peripheral plasma membrane protein CASK ; CASK ; O14936 (Homo sapiens, UniProt O14936); settings: DIA-MS residual binding; binder
[4] = target: Proto-oncogene tyrosine-protein kinase receptor Ret ; RET ; P07949 (Homo sapiens, UniProt P07949); settings: binder
[5] = target: Serine/threonine-protein kinase 25 ; STK25 ; O00506 (Homo sapiens, UniProt O00506); settings: binder
[6] = target: Tyrosine-protein kinase CSK ; CSK ; P41240 (Homo sapiens, UniProt P41240); settings: binder
[7] = target: Tyrosine-protein kinase Fgr ; FGR ; P09769 (Homo sapiens, UniProt P09769); settings: binder
[8] = target: Tyrosine-protein kinase Fyn ; FYN ; P06241 (Homo sapiens, UniProt P06241); settings: DIA-MS residual binding; binder
[9] = target: Tyrosine-protein kinase Fyn ; FYN-2 ; P06241 (Homo sapiens, UniProt P06241); settings: DIA-MS residual binding; binder
[10] = target: T2, Tyrosine-protein kinase Tec ; TEC ; P42680 (Homo sapiens, UniProt P42680); settings: binder
T2 sequence (P42680 1-631): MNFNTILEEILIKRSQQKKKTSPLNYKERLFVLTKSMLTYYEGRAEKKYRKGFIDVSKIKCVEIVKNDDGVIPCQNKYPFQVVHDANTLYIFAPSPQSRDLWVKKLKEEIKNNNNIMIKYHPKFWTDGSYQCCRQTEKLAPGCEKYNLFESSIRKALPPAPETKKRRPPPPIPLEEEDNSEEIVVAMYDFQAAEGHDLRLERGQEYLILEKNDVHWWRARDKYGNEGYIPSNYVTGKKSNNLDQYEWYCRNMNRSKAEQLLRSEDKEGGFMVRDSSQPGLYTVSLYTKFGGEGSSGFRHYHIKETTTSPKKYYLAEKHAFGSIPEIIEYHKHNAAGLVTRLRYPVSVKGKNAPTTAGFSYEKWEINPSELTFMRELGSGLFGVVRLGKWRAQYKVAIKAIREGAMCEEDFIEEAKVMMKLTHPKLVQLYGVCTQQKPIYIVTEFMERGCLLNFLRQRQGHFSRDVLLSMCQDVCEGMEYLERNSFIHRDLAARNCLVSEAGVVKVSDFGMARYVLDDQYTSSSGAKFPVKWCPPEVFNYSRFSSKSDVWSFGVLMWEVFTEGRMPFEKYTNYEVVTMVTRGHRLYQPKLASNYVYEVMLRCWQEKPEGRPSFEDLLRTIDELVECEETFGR

[11] = target: Tyrosine-protein kinase Yes ; YES1 ; P07947 (Homo sapiens, UniProt P07947); settings: binder

Chain of Proto-oncogene tyrosine-protein kinase receptor Ret ; RET ; P07949 (P07949 whole entry): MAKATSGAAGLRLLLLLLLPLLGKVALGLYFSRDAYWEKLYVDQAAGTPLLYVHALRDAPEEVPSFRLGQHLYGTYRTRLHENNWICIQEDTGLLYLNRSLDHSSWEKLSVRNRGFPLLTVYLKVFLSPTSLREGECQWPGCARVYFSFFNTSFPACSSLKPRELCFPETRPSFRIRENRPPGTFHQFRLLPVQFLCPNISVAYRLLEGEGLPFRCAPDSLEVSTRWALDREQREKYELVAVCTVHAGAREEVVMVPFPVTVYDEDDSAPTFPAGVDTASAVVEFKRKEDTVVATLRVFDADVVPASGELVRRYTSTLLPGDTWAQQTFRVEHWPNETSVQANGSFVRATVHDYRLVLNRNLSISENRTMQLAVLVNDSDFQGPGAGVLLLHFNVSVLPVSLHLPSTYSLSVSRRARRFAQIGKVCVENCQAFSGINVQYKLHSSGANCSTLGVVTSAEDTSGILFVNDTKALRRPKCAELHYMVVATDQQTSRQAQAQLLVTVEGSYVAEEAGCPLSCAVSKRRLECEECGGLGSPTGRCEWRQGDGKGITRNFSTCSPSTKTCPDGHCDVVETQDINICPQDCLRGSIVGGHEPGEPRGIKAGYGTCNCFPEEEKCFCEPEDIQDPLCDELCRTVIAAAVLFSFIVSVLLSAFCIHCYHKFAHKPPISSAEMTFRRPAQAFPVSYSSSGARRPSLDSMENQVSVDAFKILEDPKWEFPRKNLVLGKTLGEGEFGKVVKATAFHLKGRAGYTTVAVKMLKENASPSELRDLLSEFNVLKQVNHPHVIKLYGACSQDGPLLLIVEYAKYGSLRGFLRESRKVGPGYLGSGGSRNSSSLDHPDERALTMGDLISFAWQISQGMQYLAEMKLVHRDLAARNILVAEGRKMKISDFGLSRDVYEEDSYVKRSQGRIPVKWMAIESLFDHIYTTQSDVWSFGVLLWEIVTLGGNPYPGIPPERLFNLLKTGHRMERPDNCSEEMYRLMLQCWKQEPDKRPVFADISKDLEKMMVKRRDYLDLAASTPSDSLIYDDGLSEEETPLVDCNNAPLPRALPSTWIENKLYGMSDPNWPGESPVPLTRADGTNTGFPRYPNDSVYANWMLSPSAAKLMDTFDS
Chain of Tyrosine-protein kinase Fgr ; FGR ; P09769 (P09769 whole entry): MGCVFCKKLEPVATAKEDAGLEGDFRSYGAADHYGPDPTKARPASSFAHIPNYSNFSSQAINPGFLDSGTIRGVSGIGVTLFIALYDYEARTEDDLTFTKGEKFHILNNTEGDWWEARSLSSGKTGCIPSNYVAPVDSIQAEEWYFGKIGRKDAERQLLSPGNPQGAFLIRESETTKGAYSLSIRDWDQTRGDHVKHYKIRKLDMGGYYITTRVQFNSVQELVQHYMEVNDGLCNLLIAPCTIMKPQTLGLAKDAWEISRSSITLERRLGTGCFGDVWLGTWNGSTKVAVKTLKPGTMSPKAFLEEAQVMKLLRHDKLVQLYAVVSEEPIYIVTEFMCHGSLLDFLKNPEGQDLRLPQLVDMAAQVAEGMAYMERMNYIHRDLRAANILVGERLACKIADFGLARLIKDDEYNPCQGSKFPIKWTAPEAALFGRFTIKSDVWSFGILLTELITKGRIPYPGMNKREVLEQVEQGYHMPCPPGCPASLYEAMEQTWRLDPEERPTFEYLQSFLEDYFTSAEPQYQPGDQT
Chain of Tyrosine-protein kinase Fyn ; FYN-2 ; P06241 (P06241 whole entry): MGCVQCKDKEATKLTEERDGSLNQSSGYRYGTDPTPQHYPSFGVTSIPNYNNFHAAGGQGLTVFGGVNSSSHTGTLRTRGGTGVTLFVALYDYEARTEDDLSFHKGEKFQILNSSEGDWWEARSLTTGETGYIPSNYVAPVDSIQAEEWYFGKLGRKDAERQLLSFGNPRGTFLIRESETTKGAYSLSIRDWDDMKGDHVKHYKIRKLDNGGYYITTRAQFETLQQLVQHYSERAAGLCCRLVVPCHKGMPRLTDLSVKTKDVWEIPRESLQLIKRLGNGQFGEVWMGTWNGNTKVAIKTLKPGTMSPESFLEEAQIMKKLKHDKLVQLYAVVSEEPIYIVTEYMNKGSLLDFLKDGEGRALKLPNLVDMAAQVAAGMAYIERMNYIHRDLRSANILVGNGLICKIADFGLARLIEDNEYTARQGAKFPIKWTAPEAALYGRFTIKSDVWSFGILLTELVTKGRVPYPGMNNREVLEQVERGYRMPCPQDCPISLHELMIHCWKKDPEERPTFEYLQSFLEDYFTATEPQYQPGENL
Chain of Tyrosine-protein kinase Fyn ; FYN ; P06241 (P06241 whole entry): as above
Chain of Peripheral plasma membrane protein CASK ; CASK ; O14936 (O14936 whole entry): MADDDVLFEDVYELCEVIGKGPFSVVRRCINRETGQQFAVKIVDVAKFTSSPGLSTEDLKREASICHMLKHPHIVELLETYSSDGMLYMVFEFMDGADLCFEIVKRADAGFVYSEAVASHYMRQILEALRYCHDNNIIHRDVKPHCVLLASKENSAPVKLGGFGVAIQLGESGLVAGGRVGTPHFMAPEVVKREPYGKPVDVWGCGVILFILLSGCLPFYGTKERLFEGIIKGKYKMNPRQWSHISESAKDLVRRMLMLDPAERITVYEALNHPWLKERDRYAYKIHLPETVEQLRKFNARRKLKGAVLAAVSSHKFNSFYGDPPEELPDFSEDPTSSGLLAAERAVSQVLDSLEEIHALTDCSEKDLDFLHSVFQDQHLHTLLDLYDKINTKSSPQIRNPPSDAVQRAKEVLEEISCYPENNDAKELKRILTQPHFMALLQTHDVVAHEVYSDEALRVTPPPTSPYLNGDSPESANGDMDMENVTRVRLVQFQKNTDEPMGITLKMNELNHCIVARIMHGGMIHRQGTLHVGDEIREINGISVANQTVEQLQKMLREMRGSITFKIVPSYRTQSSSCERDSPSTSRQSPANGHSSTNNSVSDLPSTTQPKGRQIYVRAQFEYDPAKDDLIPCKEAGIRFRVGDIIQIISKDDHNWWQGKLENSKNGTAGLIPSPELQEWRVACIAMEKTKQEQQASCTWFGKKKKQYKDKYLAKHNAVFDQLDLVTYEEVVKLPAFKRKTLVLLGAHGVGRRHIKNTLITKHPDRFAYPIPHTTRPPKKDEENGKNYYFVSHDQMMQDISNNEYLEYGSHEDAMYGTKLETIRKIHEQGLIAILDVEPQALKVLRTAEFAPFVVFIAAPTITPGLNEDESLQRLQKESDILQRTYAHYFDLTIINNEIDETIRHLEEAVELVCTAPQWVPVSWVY
Chain of Activated CDC42 kinase 1 ; TNK2 ; Q07912 (Q07912 whole entry, the tested form may be a part): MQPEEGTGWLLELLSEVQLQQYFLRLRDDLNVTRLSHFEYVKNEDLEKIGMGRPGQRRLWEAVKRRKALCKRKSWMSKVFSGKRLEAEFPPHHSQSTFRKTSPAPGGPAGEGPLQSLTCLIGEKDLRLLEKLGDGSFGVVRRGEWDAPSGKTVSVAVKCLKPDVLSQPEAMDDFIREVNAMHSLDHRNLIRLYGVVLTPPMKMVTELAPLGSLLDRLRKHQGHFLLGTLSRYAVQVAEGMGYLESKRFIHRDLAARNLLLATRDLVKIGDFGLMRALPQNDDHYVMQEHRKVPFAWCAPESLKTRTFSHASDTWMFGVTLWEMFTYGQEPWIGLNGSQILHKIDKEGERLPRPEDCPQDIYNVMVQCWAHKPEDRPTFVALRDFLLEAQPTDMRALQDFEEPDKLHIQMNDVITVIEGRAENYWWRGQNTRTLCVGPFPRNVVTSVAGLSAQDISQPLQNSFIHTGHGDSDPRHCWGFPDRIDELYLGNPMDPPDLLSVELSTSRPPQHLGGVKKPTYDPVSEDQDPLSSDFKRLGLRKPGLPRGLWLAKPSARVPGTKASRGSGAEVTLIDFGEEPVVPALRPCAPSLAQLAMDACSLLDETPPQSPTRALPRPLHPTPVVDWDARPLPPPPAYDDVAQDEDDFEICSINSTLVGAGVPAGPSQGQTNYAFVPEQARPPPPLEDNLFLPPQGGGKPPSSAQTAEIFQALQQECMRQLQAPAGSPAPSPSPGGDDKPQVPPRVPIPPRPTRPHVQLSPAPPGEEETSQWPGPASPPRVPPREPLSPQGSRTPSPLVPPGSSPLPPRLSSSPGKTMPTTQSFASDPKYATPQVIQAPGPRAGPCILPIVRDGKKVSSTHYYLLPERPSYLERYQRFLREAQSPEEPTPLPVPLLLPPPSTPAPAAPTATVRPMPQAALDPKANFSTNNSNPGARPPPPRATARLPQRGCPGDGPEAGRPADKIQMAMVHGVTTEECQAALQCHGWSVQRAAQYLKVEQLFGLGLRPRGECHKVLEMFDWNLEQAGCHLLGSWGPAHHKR

- DIA-MS / % Intensity (30 µM/DMSO) [1]: 2.81%
- DIA-MS / % Intensity (30 µM/DMSO) [2]: 5.824%
- DIA-MS / % Intensity (30 µM/DMSO) [3]: 21.6%
- DIA-MS / % Intensity (30 µM/DMSO) [4]: 41.37%
- DIA-MS / % Intensity (30 µM/DMSO) [5]: 52%
- DIA-MS / % Intensity (30 µM/DMSO) [6]: 0.9845%
- DIA-MS / % Intensity (30 µM/DMSO) [7]: 0.4999%
- DIA-MS / % Intensity (30 µM/DMSO) [8]: 1.145%
- DIA-MS / % Intensity (30 µM/DMSO) [9]: 2.543%
- DIA-MS / % Intensity (30 µM/DMSO) [10]: 7.109%
- DIA-MS / % Intensity (30 µM/DMSO) [11]: 2.565%
SMILES: Cc1nc(Nc2ncc(C(=O)Nc3c(C)cccc3Cl)s2)cc(N2CCN(CCO)CC2)n1 [dasatinib]
